Data reported in US20250154144A1 (CHILDREN'S HOSPITAL MEDICAL CENTER, priority 2021, published 2025).
Where two headings read alike, the source gives them in different places. One block for each compound: values may come before it.

How the values were obtained:
THP1 cells = assay: Combination drug screening, Cell Titer Glo, 10 × 10 matrix, THP1 cells; format: cell-based; conditions: single compound range 0-10,000 nM or 0-20,000 nM
FLT3 = molecular target: T1, FLT3 (Homo sapiens, UniProt P36888); assay: RBC HotSpot Kinase Assay, FLT3; conditions: FLT3 IC50
T1 sequence (P36888 610-943 limits assumed): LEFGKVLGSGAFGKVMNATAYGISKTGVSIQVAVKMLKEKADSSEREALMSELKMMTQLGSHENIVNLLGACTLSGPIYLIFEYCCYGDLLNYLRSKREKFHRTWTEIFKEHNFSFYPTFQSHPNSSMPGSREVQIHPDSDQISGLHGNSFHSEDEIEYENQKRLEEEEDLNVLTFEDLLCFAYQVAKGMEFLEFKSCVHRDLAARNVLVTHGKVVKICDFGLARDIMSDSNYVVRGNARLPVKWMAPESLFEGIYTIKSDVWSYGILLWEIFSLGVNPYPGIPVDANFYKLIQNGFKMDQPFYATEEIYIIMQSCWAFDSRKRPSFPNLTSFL

MOLM14(D835Y) cells = format: cell-based; conditions: MOLM14(D835Y) cells; for Excess HSA Score: 10 × 10
IRAK1 = IRAK1 (Homo sapiens, UniProt P51617); assay: RBC HotSpot Kinase Assay, IRAK1; conditions: IRAK1 IC50
IRAK1, sequence (P51617 whole entry): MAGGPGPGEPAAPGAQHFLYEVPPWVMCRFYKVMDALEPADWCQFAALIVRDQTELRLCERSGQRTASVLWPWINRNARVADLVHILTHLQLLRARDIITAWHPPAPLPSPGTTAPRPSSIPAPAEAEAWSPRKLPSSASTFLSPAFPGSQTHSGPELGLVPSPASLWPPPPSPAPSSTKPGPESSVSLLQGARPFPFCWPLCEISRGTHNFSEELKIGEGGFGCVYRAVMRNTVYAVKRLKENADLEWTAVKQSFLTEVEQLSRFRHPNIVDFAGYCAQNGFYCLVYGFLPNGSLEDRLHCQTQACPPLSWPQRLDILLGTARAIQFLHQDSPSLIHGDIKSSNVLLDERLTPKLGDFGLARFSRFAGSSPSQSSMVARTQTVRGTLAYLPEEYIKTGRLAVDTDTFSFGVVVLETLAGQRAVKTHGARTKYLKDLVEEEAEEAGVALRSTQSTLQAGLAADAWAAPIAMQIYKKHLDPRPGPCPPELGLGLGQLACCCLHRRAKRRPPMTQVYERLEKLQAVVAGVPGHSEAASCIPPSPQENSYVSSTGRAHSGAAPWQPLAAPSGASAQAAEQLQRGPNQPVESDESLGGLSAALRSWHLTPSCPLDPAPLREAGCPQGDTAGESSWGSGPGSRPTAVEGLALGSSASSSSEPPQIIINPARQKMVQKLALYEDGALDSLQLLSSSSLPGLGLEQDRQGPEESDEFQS

MOLM14 D835Y cells = assay: cells; format: cell-based; conditions: Homo sapiens, MOLM-14, 48 h, 48 hours, Cell Titer Glo; read-out: MOLM14 D835Y IC50
IRAK4 = molecular target: T2, IRAK4 (Homo sapiens, UniProt Q9NWZ3); assay: RBC HotSpot Kinase Assay, IRAK4; conditions: IRAK4 IC50
T2 sequence (Q9NWZ3 1-460): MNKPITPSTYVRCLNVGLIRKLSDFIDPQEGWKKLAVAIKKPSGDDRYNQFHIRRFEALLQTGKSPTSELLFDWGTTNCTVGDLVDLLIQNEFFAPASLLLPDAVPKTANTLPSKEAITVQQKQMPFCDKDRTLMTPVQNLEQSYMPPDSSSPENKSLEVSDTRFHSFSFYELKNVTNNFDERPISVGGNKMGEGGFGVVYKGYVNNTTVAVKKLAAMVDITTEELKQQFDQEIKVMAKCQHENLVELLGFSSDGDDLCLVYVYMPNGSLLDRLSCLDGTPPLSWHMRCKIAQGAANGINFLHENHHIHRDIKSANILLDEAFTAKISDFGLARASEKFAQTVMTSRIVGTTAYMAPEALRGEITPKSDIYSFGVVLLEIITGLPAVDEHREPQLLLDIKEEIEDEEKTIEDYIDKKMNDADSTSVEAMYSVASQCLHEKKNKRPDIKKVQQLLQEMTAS

MOLM14 F691L cells = assay: cells; format: cell-based; conditions: Homo sapiens, MOLM-14, 48 h, 48 hours, Cell Titer Glo; read-out: MOLM14 F691L IC50
[1] = combination with (+)-BAY-1251152

IC50 (FLT3): < 0.0005 µM | IC50 (IRAK1): 0.062 µM | IC50 (MOLM14 D835Y cells): 0.024 µM | IC50 (IRAK4): 0.001 µM | IC50 (MOLM14 F691L cells): 0.055 µM
SMILES: COc1ccn2c(-c3cncc(N[C@@H]4CCCNC4)n3)cnc2c1 [Compound 5, (R)-6-(7-methoxyimidazo[1,2-a]pyridin-3-yl)-N-(piperidin-3-yl)pyrazin-2-amine]
Comments (THP1 cells; with (+)-BAY-1251152): Synergistic | Excess HSA Score (THP1 cells; with (+)-BAY-1251152): −264.5 | Comments (THP1 cells; with AMG-232): Antagonistic | Excess HSA Score (THP1 cells; with AMG-232): 105.5 | Comments (THP1 cells; with AZD-5363): Synergistic | Excess HSA Score (THP1 cells; with AZD-5363): −94.57 | Comments (THP1 cells; with Eprenetapopt/APR-246): Antagonistic | Excess HSA Score (THP1 cells; with Eprenetapopt/APR-246): 163.2 | Comments (THP1 cells; with Ivosidenib): Antagonistic | Excess HSA Score (THP1 cells; with Ivosidenib): 190 | Comments (THP1 cells; with Lenalidomide): Antagonistic | Excess HSA Score (THP1 cells; with Lenalidomide): 264.6 | Comments (THP1 cells; with Palbociclib): Antagonistic | Excess HSA Score (THP1 cells; with Palbociclib): 624.7438 | Comments (THP1 cells; with Prednisolone): Antagonistic | Excess HSA Score (THP1 cells; with Prednisolone): 31.68 | Comments (THP1 cells; with SNDX-5613): Antagonistic | Excess HSA Score (THP1 cells; with SNDX-5613): 340 | Comments (THP1 cells; with TNO-155): Antagonistic | Excess HSA Score (THP1 cells; with TNO-155): 28.11 | Comments (THP1 cells; with Trametinib): Antagonistic | Excess HSA Score (THP1 cells; with Trametinib): 374.3 | Comments (THP1 cells; with Ulixertinib): Antagonistic | Excess HSA Score (THP1 cells; with Ulixertinib): 565.8 | Comments (THP1 cells; with Venetoclax (ABT-199)): Synergistic | Excess HSA Score (THP1 cells; with Venetoclax (ABT-199)): −1771.116 | Excess HSA Score (MOLM14(D835Y) cells; [1]): 11.13 | Excess HSA Score (MOLM14(D835Y) cells; combination with AMG-232): −114.6 | Excess HSA Score (MOLM14(D835Y) cells; combination with AZD-5363): −297.4 | Excess HSA Score (MOLM14(D835Y) cells; combination with Eprenetapopt/APR-246): −154.6246 | Excess HSA Score (MOLM14(D835Y) cells; combination with Ivosidenib): −34.74 | Excess HSA Score (MOLM14(D835Y) cells; combination with Lenalidomide): −84.4505 | Excess HSA Score (MOLM14(D835Y) cells; combination with Palbociclib): −483.7 | Excess HSA Score (MOLM14(D835Y) cells; combination with Prednisolone): −69.46 | Excess HSA Score (MOLM14(D835Y) cells; combination with SNDX-5613): −465.3 | Excess HSA Score (MOLM14(D835Y) cells; combination with TNO-155): −575.9 | Excess HSA Score (MOLM14(D835Y) cells; combination with Trametinib): 213.7 | Excess HSA Score (MOLM14(D835Y) cells; combination with Ulixertinib): −1042 | Excess HSA Score (MOLM14(D835Y) cells; combination with Venetoclax (ABT-199)): −862.5 | Comments (MOLM14(D835Y) cells; [1]): Antagonistic | Comments (MOLM14(D835Y) cells; combination with Ulixertinib): Synergistic

IC50 (FLT3): < 0.0005 µM | IC50 (IRAK1): 0.045 µM | IC50 (MOLM14 D835Y cells): 0.007 µM | IC50 (IRAK4): 0.002 µM | IC50 (MOLM14 F691L cells): 0.077 µM
SMILES: FC(F)COc1ccn2c(-c3ccnc(N[C@@H]4CCCNC4)n3)cnc2c1 [Compound 32, (R)-4-(7-(2,2-difluoroethoxy)imidazo[1,2-a]pyridin-3-yl)-N-(piperidin-3-yl)pyrimidin-2-amine]

IC50 (FLT3): < 0.0005 µM | IC50 (IRAK1): 0.01 µM | IC50 (MOLM14 D835Y cells): 0.086 µM | IC50 (IRAK4): 0.005 µM | IC50 (MOLM14 F691L cells): 1.09 µM
SMILES: FC(F)Oc1ccn2c(-c3ccnc(N[C@H]4CNC[C@@H]4F)n3)cnc2c1 [Compound 34, 4-(7-(difluoromethoxy)imidazo[1,2-a]pyridin-3-yl)-N-((3S,4S)-4-fluoropyrrolidin-3-yl)pyrimidin-2-amine]

IC50 (FLT3): < 0.0005 µM | IC50 (IRAK1): 0.12 µM | IC50 (MOLM14 D835Y cells): 0.039 µM | IC50 (IRAK4): 0.027 µM | IC50 (MOLM14 F691L cells): 0.433 µM
SMILES: FC(F)Oc1ccn2c(-c3ccnc(N[C@@H]4CCCNC4)n3)cnc2c1 [Compound 35, (R)-4-(7-(difluoromethoxy)imidazo[1,2-a]pyridin-3-yl)-N-(piperidin-3-yl)pyrimidin-2-amine]

IC50 (FLT3): < 0.0005 µM | IC50 (IRAK1): 0.017 µM | IC50 (MOLM14 D835Y cells): 0.043 µM | IC50 (IRAK4): 0.003 µM | IC50 (MOLM14 F691L cells): 0.307 µM
SMILES: FC(F)Oc1ccn2c(-c3ccnc(N[C@H]4CNCC[C@@H]4F)n3)cnc2c1 [Compound 36, 4-(7-(difluoromethoxy)imidazo[1,2-a]pyridin-3-yl)-N-((3S,4S)-4-fluoropiperidin-3-yl)pyrimidin-2-amine]

IC50 (FLT3): < 0.0005 µM | IC50 (IRAK1): 0.06 µM | IC50 (MOLM14 D835Y cells): 0.022 µM | IC50 (IRAK4): 0.006 µM | IC50 (MOLM14 F691L cells): 0.193 µM
SMILES: c1cc(-c2cnc3cc(OC4CC4)ccn23)nc(N[C@@H]2CCCNC2)n1 [Compound 38, (R)-4-(7-cyclopropoxyimidazo [1,2-a]pyridin-3-yl)-N-(piperidin-3-yl)pyrimidin-2-amine]

IC50 (FLT3): < 0.0005 µM | IC50 (IRAK1): 0.064 µM | IC50 (MOLM14 D835Y cells): 0.077 µM | IC50 (IRAK4): 0.012 µM | IC50 (MOLM14 F691L cells): 1.37 µM
SMILES: O=C1CCCN1c1cn2c(-c3ccnc(N[C@H]4CNC[C@@H]4F)n3)cnc2cn1 [Compound 46, 1-(3-(2-(((3S,4S)-4-fluoropyrrolidin-3-yl)amino)pyrimidin-4-yl)imidazo[1,2-a]pyrazin-6-yl)pyrrolidin-2-one]

IC50 (FLT3): < 0.0005 µM | IC50 (IRAK1): 0.068 µM | IC50 (MOLM14 D835Y cells): 0.039 µM | IC50 (IRAK4): 0.012 µM | IC50 (MOLM14 F691L cells): 0.344 µM
SMILES: O=C1CCCN1c1cn2c(-c3ccnc(N[C@@H]4CCCNC4)n3)cnc2cn1 [Compound 47, (R)-1-(3-(2-(piperidin-3-ylamino)pyrimidin-4-yl)imidazo[1,2-a]pyrazin-6-yl)pyrrolidin-2-one]

IC50 (FLT3): < 0.0005 µM | IC50 (IRAK1): 0.097 µM | IC50 (MOLM14 D835Y cells): 0.043 µM | IC50 (IRAK4): 0.018 µM | IC50 (MOLM14 F691L cells): 0.273 µM
SMILES: O=C1CCCN1c1cn2c(-c3ccnc(N[C@H]4CNCC[C@@H]4F)n3)cnc2cn1 [Compound 48, 1-(3-(2-(((3S,4S)-4-fluoropiperidin-3-yl)amino)pyrimidin-4-yl)imidazo[1,2-a]pyrazin-6-yl)pyrrolidin-2-one]

IC50 (FLT3): 0.005 µM | IC50 (IRAK1): 0.961 µM | IC50 (MOLM14 D835Y cells): 0.473 µM | IC50 (IRAK4): 0.042 µM | IC50 (MOLM14 F691L cells): 7.5 µM
SMILES: CC(C)Oc1ccn2c(-c3nccc(N[C@H]4CNC[C@@H]4F)n3)cnc2c1 [Compound 52, N-((3S,4S)-4-fluoropyrrolidin-3-yl)-2-(7-isopropoxyimidazo[1,2-a]pyridin-3-yl)pyrimidin-4-amine]

IC50 (FLT3): 0.002 µM | IC50 (IRAK1): 1.94 µM | IC50 (MOLM14 D835Y cells): 0.205 µM | IC50 (IRAK4): 0.06 µM | IC50 (MOLM14 F691L cells): 2.17 µM
SMILES: CC(C)Oc1ccn2c(-c3nccc(N[C@@H]4CCCNC4)n3)cnc2c1 [Compound 53, (R)-2-(7-isopropoxyimidazo[1,2-a]pyridin-3-yl)-N-(piperidin-3-yl)pyrimidin-4-amine]
